Values after ≈ are worked out from the molar mass of the structure shown. Where two headings read alike, the source gives them in different places.
Experiments:
[1] = Human Liver Microsomal Stability (Test C); format: in vitro ADME; details: human, liver microsomes
How it was run: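 Human liver microsome incubation per the Wernevik et al. integrated DMPK panel protocol. Intrinsic clearance reported as CLint in μl/min/mg protein, averaged arithmetically over repeat runs.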

[2] = Human Plasma Protein Binding (Test B); format: in vitro ADME; details: fraction unbound (fu)
How it was run: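 Human plasma protein binding run per the published Wernevik et al. (2020) integrated DMPK panel protocol. Values are fraction unbound (fu, % free); repeat runs averaged arithmetically.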

human RXFP1 = molecular target: T1, human RXFP1 (Homo sapiens, UniProt Q9HBX9); assay: RXFP1 Hu cAMP (Test A); format: cell-based; parameters: expressed in transfected cells; host or cells: Jump-In T-REx CHO-K1 cells (ThermoFisher), induced with 10 ng/ml doxycycline for 24 h
T1 sequence (Q9HBX9 1-757): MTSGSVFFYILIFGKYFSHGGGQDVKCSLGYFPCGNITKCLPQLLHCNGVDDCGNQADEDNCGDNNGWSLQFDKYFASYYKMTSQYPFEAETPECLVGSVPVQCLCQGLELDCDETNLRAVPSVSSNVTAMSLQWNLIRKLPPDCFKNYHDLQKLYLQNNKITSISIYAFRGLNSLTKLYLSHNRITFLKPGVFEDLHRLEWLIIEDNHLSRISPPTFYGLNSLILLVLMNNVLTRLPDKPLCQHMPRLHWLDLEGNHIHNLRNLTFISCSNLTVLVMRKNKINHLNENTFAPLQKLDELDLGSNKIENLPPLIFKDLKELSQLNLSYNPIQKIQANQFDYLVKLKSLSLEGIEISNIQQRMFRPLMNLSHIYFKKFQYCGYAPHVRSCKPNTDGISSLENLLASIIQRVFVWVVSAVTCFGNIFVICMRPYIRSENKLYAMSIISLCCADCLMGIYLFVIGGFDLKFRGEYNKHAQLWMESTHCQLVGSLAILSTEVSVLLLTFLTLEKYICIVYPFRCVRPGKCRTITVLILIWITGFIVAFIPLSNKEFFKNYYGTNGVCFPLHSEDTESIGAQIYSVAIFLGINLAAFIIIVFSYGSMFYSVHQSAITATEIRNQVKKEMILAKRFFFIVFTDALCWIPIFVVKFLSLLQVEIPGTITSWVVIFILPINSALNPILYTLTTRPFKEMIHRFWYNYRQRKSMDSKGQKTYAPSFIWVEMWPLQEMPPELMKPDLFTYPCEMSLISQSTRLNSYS
How it was run: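 CHO-K1 (Jump-In T-REx), RXFP1 induced w/ 10 ng/ml doxycycline 24 h, cryopreserved. 0.5 mM IBMX final. cAMP by HTRF, 2 h RT, std curve.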

Solubility (Test F) = format: physicochemical; details: arithmetic mean if run multiple times
Description: The assay was conducted according to the Solubility Assay described in pages 164-167 of Wernevik, J. et al., “A Fully Integrated Assay Panel for Early Drug Metabolism and Pharmacokinetics Profiling”, Assay and Drug Development Technologies, 2020, 18(4), 157-179. Data are reported in Table 36 as solubility ([…]. Where the assay was run multiple times for the same compound, the arithmetic mean is reported.

[3] = Human Hepatocyte Stability (Test D); format: in vitro ADME; details: human, cryopreserved pooled human hepatocytes (LiverPool 10-Donor), geometric mean if run multiple times
How it was run: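 Pooled 10-donor cryopreserved human hepatocytes (≥80% viable) in L-15 medium at 0.25×10^6 cells per 0.25 mL well. Compound added from 100 μM acetonitrile solution; incubated at 37 °C with shaking, acetonitrile-quenched, LC-MS analysed. Clint (μL/min/10^6 cells) from ln % parent vs time slope; geometric mean of repeat runs.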

[4] = Rat Hepatocyte Stability (Test E); format: in vitro ADME; details: rat, hepatocytes, geometric mean if run multiple times
How it was run: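 Run per the published AstraZeneca-type rat hepatocyte stability protocol (Wernevik et al. panel). Values are mean intrinsic clearance, Clint in μl/min/10^6 cells; geometric mean used for repeated runs.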

[5] = RXFP1 Hu cAMP, read-out: Test A EC50

SMILES | microsomal CLint [1] [µL/min/mg] | Test B Human Plasma Protein Binding (% free) [2] [% free] | Test A Sinf (human RXFP1; RXFP1 Hu cAMP) [%] | EC50 (human RXFP1; [5]) [nM] | solubility (Solubility (Test F)) [µM] | hepatocyte CLint at 1 µM [3] [µL/min/1e6 cells] | hepatocyte CLint [4] [µL/min/1e6 cells] | EC50 (human RXFP1; Test A EC50, RXFP1 Hu cAMP) [nM]
COc1cc(F)c(Oc2ccc(C(=O)O)cc2)cc1C(=O)N[C@H]1[C@@H](C(=O)Nc2cccc(S(=O)(=O)C(F)(F)F)c2)[C@@H]2C=C[C@H]1C2 (racemic) [Example 484] | 9.4 | <0.31 | 101 | 250 | 400 (≈ 259 µg/mL) | 7.2 | 13 | –
COc1cc(F)c(-c2ccc(S(N)(=O)=O)cc2)cc1C(=O)N[C@@H]1[C@H]2CC[C@H](C2)[C@@H]1C(=O)Nc1cccc(S(=O)(=O)C(F)(F)F)c1 [Example 248] | 74 | <3.3 | 108 | 220 | 2 (≈ 1.34 µg/mL) | 18 | 32 | –
COc1cc(C#N)c(O[C@H]2CC[C@@](C)(C(=O)O)CC2)cc1C(=O)N[C@@H]1[C@H]2CC[C@H](C2)[C@@H]1C(=O)NC(C)(C)CF [Example 77] | 4 | 21 | 108 | – | 650 (≈ 353 µg/mL) | 3.7 | 12 | –
COc1cc(C#N)c(O[C@H]2CC[C@@](C)(C(=O)O)CC2)cc1C(=O)NC1C2CCC(O2)C1C(=O)NCC1(C)CCC1 (single isomer, unassigned) [Example 534, (1R,4s)-4-(2-Cyano-4-methoxy-5-(((1S*,2S*,3R*,4R*)-3-(((1-methylcyclobutyl)methyl)carbamoyl)-7-oxabicyclo[2.2.1]heptan-2-yl)carbamoyl)phenoxy)-1-methylcyclohexane-1-carboxylic acid] | 16 | 7.1 | 106 | 99 | > 1000 | 43 | 19 | –
COc1cc(F)c(-c2ccc(CC(=O)O)cc2)cc1C(=O)N[C@@H]1CCC[C@@H]1C(=O)Nc1cccc(S(=O)(=O)C(F)(F)F)c1 [Example 320] | 14 | 0.67 | 119 | 460 | > 1000 | 11 | 9.6 | –
COc1cc(F)c(-c2ccc(C(=O)O)cc2)cc1C(=O)N[C@H]1[C@@H](C(=O)Nc2cc(F)cc(C(F)(F)F)c2)[C@@H]2C=C[C@H]1C2 (racemic) [Example 308] | 4.9 | 0.16 | 109 | – | > 1000 | 14 | 33 | –
COc1cc(Cl)c(O[C@H]2CC[C@@](C)(C(=O)O)CC2)cc1C(=O)N[C@@H]1[C@H]2CC[C@H](C2)[C@@H]1C(=O)NC12CC(F)(C1)C2 [Example 411] | 7.9 | 1.8 | 108 | 24 | 710 (≈ 400 µg/mL) | 2.1 | 17 | –
COc1cc(F)c(O[C@H]2CC[C@@H](C(=O)O)CC2)cc1C(=O)NC1=C(C(=O)Nc2ccc(F)c(C(F)(F)F)c2)CCC1 [Example 214, (1s,4s)-4-(2-Fluoro-5-((2-((4-fluoro-3-(trifluoromethyl)phenyl)carbamoyl)cyclopent-1-en-1-yl)carbamoyl)-4-methoxyphenoxy)cyclohexane-1-carboxylic acid] | < 3 | 0.090 | 115 | – | 400 (≈ 233 µg/mL) | 2.3 | 5.3 | –
CCOc1cc(F)c(O[C@H]2CC[C@@](C)(C(=O)O)CC2)cc1C(=O)N[C@@H]1[C@H]2CC[C@H](C2)[C@@H]1C(=O)NCC1(C)CCC1 [Example 385] | 50 | 4.1 | 106 | – | 780 (≈ 436 µg/mL) | 8 | 19 | –
COc1ccc(O[C@H]2CC[C@@](C)(C(=O)O)CC2)cc1C(=O)N[C@@H]1[C@H]2CC[C@H](C2)[C@@H]1C(=O)NCC1(C)CCC1 [Example 381] | 36 | 3.8 | – | – | 1000 (≈ 527 µg/mL) | 6.1 | 21 | 110

More lines, main results first:

microsomal CLint [1] [µL/min/mg] | Test B Human Plasma Protein Binding (% free) [2] [% free] | Test A Sinf (human RXFP1; RXFP1 Hu cAMP) [%] | EC50 (human RXFP1; [5]) [nM] | solubility (Solubility (Test F)) [µM] | hepatocyte CLint at 1 µM [3] [µL/min/1e6 cells] | hepatocyte CLint [4] [µL/min/1e6 cells] | SMILES | EC50 (human RXFP1; Test A EC50, RXFP1 Hu cAMP) [nM]
58 | 9.3 | 108 | 420 | 850 (≈ 565 µg/mL) | 16 | 21 | COc1cc(F)c(-c2ncc(CCC(=O)O)cn2)cc1C(=O)N[C@@H]1[C@H]2CC[C@H](C2)[C@@H]1C(=O)Nc1cccc(S(=O)(=O)C(F)(F)F)c1 [Example 323, 3-(2-(2-Fluoro-4-methoxy-5-(((1S,2R,3S,4R)-3-((3-((trifluoromethyl)sulfonyl)phenyl)carbamoyl)bicyclo[2.2.1]heptan-2-yl)carbamoyl)phenyl)pyrimidin-5-yl)propanoic acid] | –
12 | 0.33 | 105 | 1.5 | 190 (≈ 127 µg/mL) | 4.3 | 17 | COc1cc(F)c(O[C@H]2CC[C@@](C)(C(=O)O)CC2)cc1C(=O)NC1C2CCC(C2)C1C(=O)Nc1cccc(S(=O)(=O)C(F)(F)F)c1 (single isomer, unassigned) [Example 586, (1R,4s)-4-(2-Fluoro-4-methoxy-5-(((1S*,2S*,3R*,4R*)-3-((3-((trifluoromethyl)sulfonyl)phenyl)carbamoyl)bicyclo[2.2.1]heptan-2-yl)carbamoyl)phenoxy)-1-methylcyclohexane-1-carboxylic acid] | –
45 | 5 | 104 | 640 | 980 (≈ 651 µg/mL) | 13 | 15 | COc1cc(F)c(-c2ccc(CCC(=O)O)nn2)cc1C(=O)N[C@@H]1[C@H]2CC[C@H](C2)[C@@H]1C(=O)Nc1cccc(S(=O)(=O)C(F)(F)F)c1 [Example 245] | –
13 | 2.3 | 95 | 600 | 680 (≈ 391 µg/mL) | 4.1 | 48 | COc1cc(F)c(O[C@H]2CC[C@@H](C(=O)O)CC2)cc1C(=O)N[C@@H]1[C@H]2CC[C@H](C2)[C@@H]1C(=O)Nc1ccc(C(F)F)cc1 [Example 181, (1S,4s)-4-(5-(((1S,2R,3S,4R)-3-((4-(Difluoromethyl)phenyl)carbamoyl)bicyclo[2.2.1]heptan-2-yl)carbamoyl)-2-fluoro-4-methoxyphenoxy)cyclohexane-1-carboxylic acid] | –
42 | 1 | 106 | 16 | > 800 | 13 | 32 | COc1cc(F)c(O[C@H]2CC[C@@H](C(=O)O)CC2)cc1C(=O)N[C@@H]1[C@H]2CC[C@H](C2)[C@@H]1C(=O)Nc1ccc(F)c(C(F)(F)F)c1 [Example 179, (1S,4s)-4-(2-Fluoro-5-(((1S,2R,3S,4R)-3-((4-fluoro-3-(trifluoromethyl)phenyl)carbamoyl)bicyclo[2.2.1]heptan-2-yl)carbamoyl)-4-methoxyphenoxy)cyclohexane-1-carboxylic acid] | –

Reference: patent US11667602B2, “Compounds and their use” (AstraZeneca AB, priority 2020, dated 2023)
